Test results from patent publication US11821042B2, “Targeting chromosomal instability and downstream cytosolic DNA signaling for cancer treatment” (Cornell University, priority 2017, dated 2023).

Tested on: MDA-MB-231 cells
Test: In vitro invasion assay through collagen membrane (CytoSelect)
Assay type: cell-based, human
Details: addition to MCAK (CIN-low) cells
Method: For the invasion and migration/chemotaxis assays the CytoSelect cell invasion (CBA-110) and cell migration (CBA-100) kits, respectively, were used. Briefly, 3×10^5 cells were suspended in serum-free media and placed on top of the membrane. […] For the chemotaxis assay, we used a colorimetric approach (OD 560 nm) for quantification. For the scratch assay, cells were treated with mitomycin C (10 μgml^−1) for 1 hour when they reached >90% confluence and then placed in DMEM containing 1% FBS. Wounds were applied using p200 pipette tip and images of the wound were taken immediately and at subsequent regular intervals. ImageJ was used for quantification of wound surface area.

**Q.** For `Nc1nc2c(ncn2[C@@H]2O[C@@H]3COP(=O)(O)O[C@H]4[C@@H](O)[C@H](n5cnc6c(N)ncnc65)O[C@@H]4COP(=O)(O)O[C@@H]2[C@@H]3O)c(=O)[nH]1` [cGAMP, cyclic guanosine monophosphate-adenosine monophosphate], which “ability to migrate and invade through a collagen membrane” value is on record?
**A.** increased
